From patent publication US20100087406A1, “INDUCTION OF INNATE IMMUNITY BY VITAMIN D3 AND ITS ANALOGS” (CEDARS-SINAI MEDICAL CENTER, priority 2004, published 2010)
“Also recorded” adds a separate entry of the source. Read-outs that look alike come from different tables or passages of the source.

Key:
CAMP [1] = assay: Induction of CAMP mRNA expression in U937 cells (QRT-PCR, RT-PCR, Northern blot); assay type: cell-based, human; conditions: for induction of CAMP (hCAP18) mRNA expression by Vitamin D3 analogs: U937, 1×10^−7 M, 12 and 24 hours
CAMP [2] = assay: Induction of CAMP mRNA expression in NB4 cells (Northern blot)
CAMP [3] = assay: Induction of CAMP mRNA expression in HL60 cells (Northern blot)
CRAMP [4] = assay: CRAMP expression in bone marrow of treated BNX mice (Northern blot); conditions: intraperitoneal, 0.05 μg/mouse every two days for 6 weeks
CAMP [5] = conditions: cultured keratinocytes or composite keratinocyte grafts; cited from earlier work
hCAP18 = conditions: colon epithelial cell lines; cited from earlier work
CAMP [6] = conditions: primary human keratinocytes; cited from earlier work
CAMP [7] = assay: Induction of CAMP mRNA in keratinocyte cell line HaCat (QRT-PCR); assay type: cell-based, human
Description: The X-axis represents (CAMP(ng)/18S(ng)), +/−SD.

CRAMP [8] = assay: CRAMP in cultured bone marrow cells of C/EBPε-deficient or wild type mice (QRT-PCR); assay type: cell-based
Description: Primers against murine CAMP/CRAMP (forward, SEQ ID NO.: 7 and reverse, SEQ ID NO.: 8) (Table 3) were used at 200 nM per reaction.
The relative fold change between samples was determined using data normalized for 18S expression. Samples were analyzed in triplicate.

HNP3 (α-defensin) = assay: Induction of primary granule gene HNP3 in U937 cells (RT-PCR); conditions: U937, 1×10^−7 M, 24 h
LTF (lactoferrin) = assay: Induction of secondary granule gene LTF in U937 cells (RT-PCR); conditions: U937, 1×10^−7 M, 24 h
CD11b [9] = assay: Differentiation marker CD11b mRNA in U937 cells (Northern blot); conditions: for macrophage-like differentiation (induction of CD11b): U937, 1,25[OH]2D3 1×10^−7 M or TPA 5 ng/ml, 1, 3 or 5 days
Description: Total RNA at each time point was isolated and electrophoresed, then transferred to a charged membrane for Northern analysis.
Total RNA was extracted and analyzed by Northern blot.

CD11b [10] = assay: Differentiation marker CD11b mRNA in HL60 cells (Northern blot); assay type: cell-based, human; conditions: HL-60; 1,25[OH]2D3 1×10^−7 M or TPA 5 ng/ml; 1, 3 or 5 days
[11] = U937, initial screen, 24 h, QRT-PCR and Northern blot

C=C1/C(=C\C=C2/CCC[C@]3(C)[C@@H]([C@@H](C)OCCCC(O)(CC)CC)CC[C@@H]23)C[C@@H](O)C[C@@H]1O [KH1060, 20-epi-22oxa-24a,26a,27a-tri-homo-1,25(OH)2D3]
induction of CAMP (hCAP18) mRNA expression by Vitamin D3 analogs (CAMP [1]; Northern blot): strongly induced CAMP gene expression; also recorded: Induction of hCAP18 mRNA expression was observed; also recorded: Induction of CAMP mRNA expression was observed

CC1=C(/C=C/C(C)=C/C=C/C(C)=C/C(=O)O)C(C)(C)CCC1 [ATRA, all trans retinoic acid]
induction of CAMP expression (CAMP [1]; U937, 5×10^−7 M, 1-5 days): No induction was observed
induction of CAMP expression (CAMP [1]; [11]): only 1,25(OH)2D3 induced CAMP expression significantly
induction of CAMP expression (CAMP [2]; NB4, 5×10^−7 M, 1-5 days): No induction was observed
induction of CAMP expression (CAMP [3]; HL60, 5×10^−7 M, 1-5 days): No induction was observed

C=C1/C(=C\C=C2/CCC[C@]3(C)[C@@H]([C@H](C)/C=C/C[C@@](C)(O)CO)CC[C@@H]23)C[C@@H](O)C[C@@H]1O [compound I, 1,25R,26-(OH)3-22-ene-D3]
induction of CAMP (hCAP18) mRNA expression by Vitamin D3 analogs (CAMP [1]; Northern blot): strongly induced CAMP gene expression; also recorded: Induction of hCAP18 mRNA expression was observed; also recorded: Induction of CAMP mRNA expression was observed
CRAMP expression in bone marrow compared with a vehicle-treated mouse (CRAMP [4]): did not significantly alter CRAMP expression

IL-6: cytokine
induction of CAMP expression (CAMP [1]; [11]): only 1,25(OH)2D3 induced CAMP expression significantly
induction of CAMP expression (CAMP [5]): did not
induction of hCAP18 expression (hCAP18): not by pro-inflammatory mediators

C[C@]12CCC(=O)C[C@@H]1CC[C@@H]1[C@@H]2CC[C@]2(C)[C@@H](O)CC[C@@H]12 [DHT, dihydrotestosterone]
induction of CAMP expression (CAMP [1]): only 1,25(OH)2D3 induced CAMP expression significantly

TNFα
induction of CAMP expression (CAMP [1]; [11]): only 1,25(OH)2D3 induced CAMP expression significantly
induction of CAMP expression (CAMP [5]): did not
induction of hCAP18 expression (hCAP18): not by pro-inflammatory mediators

CCCCCCCCCCCCCC(=O)O[C@@H]1[C@@H](C)[C@@]2(O)[C@@H](C=C(CO)C[C@]3(O)C(=O)C(C)=C[C@@H]23)[C@@H]2C(C)(C)[C@]12OC(C)=O [PMA]
induction of hCAP18 expression (hCAP18): not by pro-inflammatory mediators

insulin-like growth factor (IGF)-1: growth factor that is important in wound healing
induction of CAMP mRNA and protein (CAMP [6]): induce both the CAMP mRNA and protein

INFγ: inflammatory factor
induction of CAMP expression (CAMP [1]; [11]): only 1,25(OH)2D3 induced CAMP expression significantly
induction of CAMP expression (CAMP [5]): did not
induction of hCAP18 expression (hCAP18): not by pro-inflammatory mediators

GM-CSF: growth factor
induction of CAMP expression (CAMP [1]; [11]): only 1,25(OH)2D3 induced CAMP expression significantly

C=C1/C(=C\C=C2/CCC[C@]3(C)[C@@H]([C@H](C)/C=C/C=C/C(O)(CC)CC)CC[C@@H]23)C[C@@H](O)C[C@@H]1O [EB1089, 1,25-dihydroxy-22,24-diene, 24,26,27-trihomo]
induction of CAMP (hCAP18) mRNA expression by Vitamin D3 analogs (CAMP [1]; Northern blot): strongly induced CAMP gene expression
induction of CAMP (hCAP18) mRNA expression by Vitamin D3 analogs (CAMP [1]; Northern blot, listed as EB 1089): Induction of hCAP18 mRNA expression was observed; also recorded: Induction of CAMP mRNA expression was observed

IL-8: cytokine
induction of CAMP expression (CAMP [5]): did not

C=C1/C(=C\C=C2/CCC[C@]3(C)[C@@H]([C@H](C)CCCC(C)(C)O)CC[C@@H]23)C[C@@H](O)C[C@@H]1O [1,25(OH)2D3, 1,25-dihydroxyvitamin D3]
induction of CAMP mRNA compared with myeloid cells (CAMP [7]): not as robust as that observed in the myeloid cells; also recorded: less striking
induction of CAMP mRNA (CAMP [7]; 1×10^−7 M, 24 hours, QRT-PCR): Induction of CAMP mRNA was observed
induction of CRAMP (CRAMP [8]; C/EBPε-deficient or wild type bone marrow cells cultured in vitro, 24 h): CRAMP induction was not observed
decrease of CRAMP (CRAMP [8]; bone marrow cells, 24 h post-treatment (FIG. 14B)): approximately 2 fold
induction of HNP3 (HNP3 (α-defensin)): No induction of these genes was observed
induction of CAMP expression (CAMP [2]; NB4, 1×10^−6 M to 1×10^−9 M, 24 h, Northern blot (FIG. 3)): induction was observed; also recorded: induced expression of CAMP was observed
induction of CAMP expression (CAMP [2]; NB4, 1×10^−6 M to 1×10^−9 M, 24 h, Northern blot (FIG. 3), listed as Vitamin D3): Moderate induction
induction of LTF (LTF (lactoferrin)): No induction of these genes was observed
time of induction of the differentiation marker CD11b (CD11b [9]; U937, 1×10^−7 M, time course 1-24 hours): 12 h
macrophage-like differentiation (induction of CD11b) (CD11b [9]): promoted macrophage-like differentiation

CCCCCCCCCCCCCC(=O)O[C@@H]1[C@@H](C)[C@@]2(O)[C@@H](C=C(CO)C[C@]3(O)C(=O)C(C)=C[C@@H]23)[C@@H]2C(C)(C)[C@]12OC(C)=O [TPA]
induction of CAMP expression (CAMP [1]; [11]): only 1,25(OH)2D3 induced CAMP expression significantly
induction of CAMP mRNA (CAMP [1]; U937, 1,25[OH]2D3 1×10^−7 M or TPA 5 ng/ml, 1, 3 or 5 days, Northern blot): not TPA
macrophage-like differentiation (induction of CD11b) (CD11b [10]): promoted macrophage-like differentiation
induction of CAMP mRNA (CAMP [3]; HL-60, 1,25[OH]2D3 1×10^−7 M or TPA 5 ng/ml, 1, 3 or 5 days, Northern blot): not TPA
macrophage-like differentiation (induction of CD11b) (CD11b [9]): promoted macrophage-like differentiation

C[C@@H]1C[C@@H]([C@H](O)CC2CC(=O)NC(=O)C2)C(=O)[C@@H](C)C1 [CHX, cyclohexamide]
induction of CAMP gene expression by CHX alone (CAMP [1]; U937, data not shown): did not induce CAMP gene expression

IL-1β: proinflammatory cytokine
induction of CAMP expression (CAMP [5]): induced CAMP expression

B1: G-CSF: growth factor (protein, UniProt P09919 31-207, looked up)
Granulocyte …: TPLGPASSLPQSFLLKCLEQVRKIQGDGAALQEKLVSECATYKLCHPEELVLLGHSLGIPWAPLSSCPSQALQLAGCLSQLHSGLFLYQGLLQALEGISPELGPTLDTLQLDVADFATTIWQQMEELGMAPALQPTQGAMPAFASAFQRRAGGVLVASHLQSFLEVSYRVLRHLAQP
induction of CAMP expression (CAMP [1]; [11]): only 1,25(OH)2D3 induced CAMP expression significantly

B2: IL-10: cytokine (protein, UniProt P22301 19-178, looked up)
Interleukin-10: SPGQGTQSENSCTHFPGNLPNMLRDLRDAFSRVKTFFQMKDQLDNLLLKESLLEDFKGYLGCQALSEMIQFYLEEVMPQAENQDPDIKAHVNSLGENLKTLRLRLRRCHRFLPCENKSKAVEQVKNAFNKLQEKGIYKAMSEFDIFINYIEAYMTMKIRN
induction of CAMP expression (CAMP [5]): did not

B3: IL-1α: pro-inflammatory mediator (protein, UniProt P01583 113-271, looked up)
Interleukin-1 alpha: SAPFSFLSNVKYNFMRIIKYEFILNDALNQSIIRANDQYLTAAALHNLDEAVKFDMGAYKSSKDDAKITVILRISKTQLYVTAQDEDQPVLLKEMPEIPKTITGSETNLLFFWETHGTKNYFTSVAHPNLFIATKQDYWVCLAGGPPSITDFQILENQA
induction of hCAP18 expression (hCAP18): not by pro-inflammatory mediators

B4: I1-4: cytokine, probably IL-4 (protein, UniProt P05112 25-153, looked up)
Interleukin-4: HKCDITLQEIIKTLNSLTEQKTLCTELTVTDIFAASKNTTEKETFCRAATVLRQFYSHHEKDTRCLGATAQQFHRHKQLIRFLKRLDRNLWGLAGLNSCPVKEANQSTLENFLERLKTIMREKYSKCSS
induction of CAMP expression (CAMP [5]): did not
